Patent US6022879A, “Bathocuproine treatment of neurologic disease” (priority 1998, dated 2000)

Columns and labels:
[1] = molecular target: T1, human Cu,Zn superoxide dismutase (SOD), FALS mutant A4V (Homo sapiens, UniProt P00441, A5V); assay: Reduction of enzyme-bound copper of SOD by a reductant, monitored spectrally at 680 nm; type: biochemical; settings: Kpi pH 7.4, 37 degrees C
T1 construct: made in house; host or cells: E. coli BL21(DE3) plysS, pET-3d
Description: (§1) SODs were present at a subunit concentration of 0.43 mM in 0.5 ml of 0.1 mM Kpi, pH 7.4 at 37 degrees C. Ascorbate (0.5 mM) was added at time zero and reduction was monitored spectrally at 680 nm for 1 hr.
(§2) SODs were present at a subunit concentration of 0.43 mM in 0.5 ml of 0.1 mM Kpi, pH 7.4 at 37 degrees C. H2 O2 (0.4 mM) was added at time zero and reduction was monitored spectrally at 680 nm for 5 minutes.
(§3) For more than two years the notion that FALS SODs could act as peroxidases and generate hydroxyl radical has been a subject of debate. However, H2 O2 can rapidly reduce Cu,Zn SOD and generate superoxide as a byproduct. (It is the addition of a second molecule of H2 O2 to give --OH that is extremely slow and of questionable significance). […] For example, it is possible to assess superoxide production from reduced SOD using the tetranitromethane (TNM) capture assay described by Hodgson and Fridovich (7).

[2] = molecular target: T2, human Cu,Zn superoxide dismutase (SOD), FALS mutant D90A (Homo sapiens, UniProt P00441, D91A); assay: as above; type: biochemical; settings: Kpi pH 7.4, 37 degrees C
T2 construct: made in house; host or cells: E. coli BL21(DE3) plysS, pET-3d
T2 sequence (P00441 whole entry D91A): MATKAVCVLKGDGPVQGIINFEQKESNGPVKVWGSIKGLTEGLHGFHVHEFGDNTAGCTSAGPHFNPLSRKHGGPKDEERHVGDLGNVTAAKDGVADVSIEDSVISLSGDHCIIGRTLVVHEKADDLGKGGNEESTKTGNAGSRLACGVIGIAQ
Description: as §1, §2, §3

[3] = molecular target: T3, human Cu,Zn superoxide dismutase (SOD), FALS mutant G93A (Homo sapiens, UniProt P00441, G94A); assay: as above; type: biochemical; settings: Kpi pH 7.4, 37 degrees C
T3 construct: made in house; host or cells: E. coli BL21(DE3) plysS, pET-3d
T3 sequence (P00441 whole entry G94A): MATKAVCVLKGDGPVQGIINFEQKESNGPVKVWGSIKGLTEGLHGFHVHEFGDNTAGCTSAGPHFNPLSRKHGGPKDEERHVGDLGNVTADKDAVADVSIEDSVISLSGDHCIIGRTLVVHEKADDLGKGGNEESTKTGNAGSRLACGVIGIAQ
Description: as §1, §2, §3

[4] = molecular target: T4, human Cu,Zn superoxide dismutase (SOD), wild type (Homo sapiens, UniProt P00441); assay: as above; type: biochemical; settings: Kpi pH 7.4, 37 degrees C
T4 construct: made in house; host or cells: E. coli
T4 sequence (P00441 whole entry): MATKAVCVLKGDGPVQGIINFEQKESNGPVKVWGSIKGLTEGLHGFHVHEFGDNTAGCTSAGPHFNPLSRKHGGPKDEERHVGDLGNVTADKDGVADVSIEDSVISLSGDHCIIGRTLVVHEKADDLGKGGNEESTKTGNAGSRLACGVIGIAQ
Description: as §1, §2, §3

[5] = molecular target: T5, human Cu,Zn superoxide dismutase (SOD), site-directed mutant D124N (Asp124 to Asn, model zinc-deficient SOD) (Homo sapiens, UniProt P00441, D125N); assay: Reduction of enzyme-bound copper of SOD by a reductant, monitored spectrally at 680 nm (stopped-flow for ascorbate); type: biochemical
T5 construct: made in house; host or cells: E. coli
T5 sequence (P00441 whole entry D125N): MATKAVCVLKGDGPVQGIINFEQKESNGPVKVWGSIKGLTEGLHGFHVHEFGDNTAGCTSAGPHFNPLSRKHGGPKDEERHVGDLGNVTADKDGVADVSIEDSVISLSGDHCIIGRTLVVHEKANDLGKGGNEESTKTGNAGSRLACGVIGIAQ
Description: To circumvent this problem, a site-directed human SOD mutant was prepared wherein aspartate124 was changed to asparagine (D124N).
as §1, §2, §3

[6] = test system: G93A transgenic mice (overexpress human G93A ALS SOD mutant); assay: Bathocuproine in ALS SOD transgenic mice: onset and progression of paralysis; type: in vivo, mouse; settings: intraperitoneal in soybean oil, daily 0.51 mg/100 g body weight, from 190 day old G93A mice
Description: Neither the overall efficiency nor the kinetics of Cu+1 removal was altered by sulfonic acid substituents on the ring(s) of the parent bathocuproine compound. Thus, the sulfonic acid groups serve mainly to increase water solubility and are not fundamental to copper binding activity. The unsubstituted parent compound, bathocuproine, is very lipid soluble and much more likely to cross the blood-brain barrier. In G93A transgenic mice, bathocuproine was dissolved in soybean oil and injected intraperitoneally at a daily dose of 0.51 mg/100 g body weight. Assuming uniform tissue distribution and fluid fraction equal to 0.7 of the mouse's body weight, this dose should give a cellular concentration of 20 µM or roughly a 4-fold molar excess over SOD protein concentration. […] After onset, paralysis progresses rapidly up the trunk and is ultimately fatal within about 14 days. Bathocuproine injections is initiated in 190 day old mice and the mice are observed for onset and progression of paralysis relative to untreated littermates. […] A group of non-transgenic mice are also injected to control for potential toxicities from bathocuproine itself.

[7] = 0.4 mM H2O2, SOD subunit 0.43 mM, 5 minutes
[8] = 0.5 mM ascorbate, SOD subunit 0.43 mM, 1 hr

T1 sequence (P00441 whole entry A5V): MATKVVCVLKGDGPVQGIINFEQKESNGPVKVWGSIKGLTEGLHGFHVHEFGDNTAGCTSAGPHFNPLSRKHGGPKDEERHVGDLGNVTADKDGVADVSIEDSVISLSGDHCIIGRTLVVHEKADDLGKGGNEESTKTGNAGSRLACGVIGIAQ

OO [H2 O2, hydrogen peroxide]
t1/2 for reduction by H2 O2 [1, 7]: 21.2 s | t1/2 for reduction by H2 O2 [2, 7]: 30.9 s | t1/2 for reduction by H2 O2 [3, 7]: 24.2 s | t1/2 for reduction by H2 O2 [4, 7]: 30.5 s | t1/2 for reduction by H2 O2 ([5]; 0.4 mM H2O2, SOD subunit 0.43 mM, Kpi pH 7.4, 37 degrees C, 680 nm, 5 minutes): 26.7 s

Cc1cc(-c2ccccc2)c2ccc3c(-c4ccccc4)cc(C)nc3c2n1 [bathocuproine]
onset and progression of paralysis relative to untreated littermates [6]: delay of onset or slowing of progression is shown

O=C1O[C@H]([C@@H](O)CO)C(O)=C1O [ascorbate, ascorbic acid]
t1/2 for reduction of SOD copper by ascorbate [1, 8]: 1550 s | t1/2 for reduction of ascorbate [2, 8]: 1770 s | t1/2 for reduction of ascorbate [3, 8]: 1240 s | t1/2 for reduction by ascorbate ([4]; 0.5 mM ascorbate, SOD subunit 0.43 mM): 1700 s | rate of ascorbate-mediated reduction relative to wild-type SOD ([5]; 0.5 mM ascorbate, D124N versus wild-type): ~200 fold | t1/2 for reduction of SOD copper by ascorbate ([5]; 0.5 mM ascorbate, SOD subunit 0.43 mM, Kpi pH 7.4, 37 degrees C, stopped-flow spectroscopy): 8.9 s
